In article PMC9181899, “Synthesis and Anticancer Properties of New 3-Methylidene-1-sulfonyl-2,3-dihydroquinolin-4(1H)-ones” (Molecules, 2022):
Where two headings read alike, the source gives them in different places.

What was measured:
HL-60 cells [1] = test: MTT in vitro cytotoxicity assay, HL-60; format: cell-based; conditions: 48 h incubation, mean ± SEM, read-out: IC50 HL-60
Experimental: (§1) The promyelocytic leukemia HL-60 and breast cancer adenocarcinoma MCF-7 cell lines were purchased from the European Collection of Cell Cultures (ECACC). Leukemia cells were cultured in RPMI 1640 plus GlutaMax I medium (Gibco/Life Technologies, Carlsbad, CA, USA). MCF-7 cells were maintained in Minimum Essential Medium Eagle (Sigma Aldrich, St. Louis, MO, USA) and supplemented with 2 mM glutamine and men non-essential amino acid solution (Sigma Aldrich, St. Louis, MO, USA). Both media were supplemented with 10% heat-inactivated fetal bovine serum (Biological Industries, Beit-Haemek, Israel) and antibiotics (100 U/mL penicillin and 100 μg/mL streptomycin) (Sigma-Aldrich, St. Louis, MO, USA). Human umbilical vein endothelial cells (HUVECs) were purchased from the American Type Culture Collection (ATCC). Cells were cultured using EGM-2 Endothelial Medium BulletKit purchased from Lonza (Lonza, Walkersville, MD, USA). Cells were maintained at 37 °C in 5% CO2 atmosphere and grown until 80% confluent.
(§2) The tested compounds were dissolved in sterile dimethyl sulfoxide (DMSO) and further diluted with culture medium. The final concentration of DMSO in cell cultures was less than 0.1% v/v. Controls without and with 0.1% DMSO were performed in each experiment. At the used concentration, DMSO had no effect on the observed parameters.
(§3) The MTT (3-(4,5-dimethylthiazol-2-yl)-2,5-diphenyltetrazolium bromide) assay, which measures the activity of cellular dehydrogenases, was performed according to the Mosmann method. Exponentially growing cells were seeded into 24-well plates at a density of 8 × 10^4 cells/mL and left to grow for 24 h. After 24 h or 48 h of incubation with various concentrations of the tested compounds (dissolved in DMSO and diluted with complete culture medium), cells were incubated with 0.1 mL of MTT solution (5 mg/mL in phosphate buffered saline) for 1.5 h. The metabolically active cells reduced MTT to blue formazan crystals. The plates were centrifuged, and the supernatant was discarded. DMSO (1 mL) was added to each well to dissolve the crystals, whose absorbance was measured at 560 nm using FlexStation 3 Multi-Mode Microplate Reader (Molecular Devices, LLC, San Jose, CA, USA). The untreated cells were used as control. The IC50 values were calculated from the concentration–response curves. The data were expressed as mean ± SEM of three independent experiments.

MCF-7 cells = test: MTT in vitro cytotoxicity assay, MCF-7; format: cell-based; conditions: mean ± SEM
Experimental: as §1, §2, §3

HUVEC cells = test: MTT in vitro cytotoxicity assay, HUVEC (normal cells); format: cell-based, human; conditions: 48 h incubation, mean ± SEM
Experimental: as §1, §2, §3

HL-60 cells [2] = test: Apoptosis by cleaved PARP (Asp214) staining, flow cytometry; format: cell-based; conditions: 24 h, control 1.4%
Experimental: To evaluate the anticancer potential of 5a, the ability of this compound to inhibit cell proliferation, induce apoptotic cell death, and generate DNA damage was examined by flow cytometry using the ‘Apoptosis, DNA Damage, and Cell Proliferation Kit’ (BD Bioscience). After 24 h treatment with 5a in increasing concentrations, HL-60 cells were exposed to bromodeoxyuridine (BrdU) for additional 8 h. Then, the cells were simultaneously stained with fluorochrome-labeled anti-BrdU, anti-cleaved PARP (Asp214) and anti-H2AX (pS139).
To check whether the cytotoxic effect of 5a was associated with the induction of apoptosis, the pro-apoptotic activity of this compound was investigated. Apoptosis regulation is triggered by the activation of caspases. Caspase-3, an effector caspase, cleaves a number of vital proteins, leading to cell death. The activity of caspase-3 was assessed by flow cytometry using fluorochrome-labeled antibodies recognizing 89 kDa-cleaved PARP fragments released from PARP by caspase-3 in the executive stage of apoptosis.
Cell proliferation, DNA damage, and apoptotic cell death were determined using Apoptosis, DNA Damage, and Cell Proliferation Kit (BD Bioscience, San Jose, CA, USA), according to the manufacturer protocol. Briefly, HL-60 cells were seeded in 6-well plates (4.0 × 10^5 cells/mL) in 2 mL of growth medium and treated with 5a for 24 h. Afterwards, the bromodeoxyuridine (BrdU, 10 µM) was added and the cells were incubated for additional 8 h. Next, the cells were collected by centrifugation (300× g, 5 min), counted, fixed, and permeabilized according to the manufacturer’s instructions. The cells were incubated with DNase (300 µg/mL in PBS) for 1 h at 37 °C and then simultaneously stained with fluorochrome-labeled anti-BrdU, H2AX (pS139), and cleaved PARP (Asp214) antibodies, for 20 min at room temperature. After washing, DNA staining with DAPI (1 µg/mL of the staining buffer) was performed, and the cells were analyzed by flow cytometry using CytoFLEX (Beckman Coulter, Inc., Brea, CA, USA).

[3] = Homo sapiens, MCF7, 48 h incubation

| Compound | melting point [°C] | IC50 (HL-60 cells [1]; Homo sapiens, HL-60, 48 h) [µM] | IC50 (MCF-7 cells; [3]) [µM] | IC50 (HUVEC cells; Homo sapiens, HUVEC) [µM] | IC50 (HL-60 cells [1]) [µM] | IC50 (HUVEC cells) [µM] | IC50 (MCF-7 cells; 48 h incubation) [µM] | apoptotic cells (cleaved PARP positive) population (HL-60 cells [2]; 1.35 µM) [%] | apoptotic cells (cleaved PARP positive) population (HL-60 cells [2]; 1.8 µM) [%] |
| --- | --- | --- | --- | --- | --- | --- | --- | --- | --- |
| C=C1C(=O)c2cc(Br)ccc2N(S(=O)(=O)c2ccc(C)cc2)C1c1ccccc1 (stereo not shown) [Compound 5s, 6-Bromo-3-methylidene-2-phenyl-1-tosyl-2,3-dihydroquinolin-4(1H)-one] | 162 | 0.62 ± 0.01 | 2.67 ± 0.05 |  |  |  |  |  |  |
| C=C1C(=O)c2cc(Br)ccc2N(S(=O)(=O)c2ccc(C)cc2)C1c1ccc(OC)cc1 (stereo not shown) [Compound 5t, 6-Bromo-2-(4-methoxyphenyl)-3-methylidene-1-tosyl-2,3-dihydroquinolin-4(1H)-one] | 168 | 0.74 ± 0.06 | 2.81 ± 0.05 |  |  |  |  |  |  |
| C=C1C(=O)c2cc(Cl)ccc2N(S(=O)(=O)c2ccc(C)cc2)C1c1ccc(OC)cc1 (stereo not shown) [Compound 5p, 6-Chloro-2-(4-methoxyphenyl)-3-methylidene-1-tosyl-2,3-dihydroquinolin-4(1H)-one] | 150 | 2.07 ± 0.02 | 3.6 ± 0.19 |  |  |  |  |  |  |
| C=C1C(=O)c2cc(Cl)ccc2N(S(=O)(=O)c2ccc(C)cc2)C1CC (stereo not shown) [Compound 5m, 6-Chloro-2-ethyl-3-methylidene-1-tosyl-2,3-dihydroquinolin-4(1H)-one] | 126 | 1.75 ± 0.03 | 3.48 ± 0.42 |  |  |  |  |  |  |
| C=C1C(=O)c2cc(OC)c(OC)cc2N(S(=O)(=O)c2ccc(C)cc2)C1c1ccccc1 (stereo not shown) [Compound 5k, 6,7-Dimethoxy-3-methylidene-2-phenyl-1-tosyl-2,3-dihydroquinolin-4(1H)-one] | 196 | 0.58 ± 0.02 | 1.46 ± 0.09 |  |  |  |  |  |  |
| C=C1C(=O)c2cc(Br)ccc2N(S(=O)(=O)c2ccc(C)cc2)C1CC (stereo not shown) [Compound 5q, 6. -Bromo-2-ethyl-3-methylidene-1-tosyl-2,3-dihydroquinolin-4(1H)-one] | 132 | 0.61 ± 0.04 | 1.83 ± 0.15 | 1 ± 0.22 |  |  |  |  |  |
| N.N.O=C([O-])C1(C(=O)[O-])CCC1.[Pt+2] [Carboplatin, reference compound] |  |  |  |  | 3.8 ± 0.45 | 5.35 ± 0.05 | 2.9 ± 0.1 |  |  |
| CCOP(=O)(OCC)C1=C(O)c2ccccc2N(S(=O)(=O)c2ccccc2)C1CC (stereo not shown) [Compound 10a] |  |  |  |  |  |  |  | 20.6 | 26.4 |
| C=C1C(=O)c2cc(Cl)ccc2N(S(=O)(=O)c2ccc(C)cc2)C1c1ccccc1 (stereo not shown) [Compound 5o, 6-Chloro-3-methylidene-2-phenyl-1-tosyl-2,3-dihydroquinolin-4(1H)-one] | 162 | 2.04 ± 0.05 | 3.67 ± 0.41 |  |  |  |  |  |  |
| C=C1C(=O)c2cc(OC)c(OC)cc2N(S(=O)(=O)c2ccc(C)cc2)C1CC (stereo not shown) [Compound 5i, 2-Ethyl-6,7-dimethoxy-3-methylidene-1-tosyl-2,3-dihydroquinolin-4(1H)-one] | 168 | 0.37 ± 0.02 | 1.01 ± 0.05 | 0.42 ± 0.08 |  |  |  |  |  |
| C=C1C(=O)c2cc(OC)c(OC)cc2N(S(=O)(=O)c2ccc(C)cc2)C1c1ccc(OC)cc1 (stereo not shown) [Compound 5l, 6,7-Dimethoxy-2-(4-methoxyphenyl)-3-methylidene-1-tosyl-2,3-dihydroquinolin-4(1H)-one] | 196 | 1.48 ± 0.06 | 1.15 ± 0.04 |  |  |  |  |  |  |

Continued, in another order:

| melting point [°C] | Compound | IC50 (HL-60 cells [1]; Homo sapiens, HL-60, 48 h) [µM] | IC50 (MCF-7 cells; [3]) [µM] | IC50 (HUVEC cells; Homo sapiens, HUVEC) [µM] | IC50 (HL-60 cells [1]) [µM] | IC50 (HUVEC cells) [µM] | IC50 (MCF-7 cells; 48 h incubation) [µM] | apoptotic cells (cleaved PARP positive) population (HL-60 cells [2]; 1.35 µM) [%] | apoptotic cells (cleaved PARP positive) population (HL-60 cells [2]; 1.8 µM) [%] |
| --- | --- | --- | --- | --- | --- | --- | --- | --- | --- |
| 150 | C=C1C(=O)c2cc(OC)c(OC)cc2N(S(=O)(=O)c2ccc(C)cc2)C1C(C)C (stereo not shown) [Compound 5j, 6,7-Dimethoxy-3-methylidene-2-(propan-2-yl)-1-tosyl-2,3-dihydroquinolin-4(1H)-one] | 0.43 ± 0.02 | 1.44 ± 0.07 | 0.99 ± 0.07 |  |  |  |  |  |
| 86 | C=C1C(=O)c2ccccc2N(S(=O)(=O)c2ccccc2)C1C(C)C (stereo not shown) [Compound 5b, 3-Methylidene-1-(phenylsulfonyl)-2-(propan-2-yl)-2,3-dihydroquinolin-4(1H)-one] | < 0.3 | 0.83 ± 0.02 | 0.78 ± 0.21 | 0.29 ± 0.02 |  |  |  |  |
| 118 | C=C1C(=O)c2cc(Br)ccc2N(S(=O)(=O)c2ccc(C)cc2)C1C(C)C (stereo not shown) [Compound 5r, 6-Bromo-3-methylidene-2-(propan-2-yl)-1-tosyl-2,3-dihydroquinolin-4(1H)-one] | < 0.3 | 0.83 ± 0.02 | 0.47 ± 0.03 | 0.19 ± 0.03 |  |  |  |  |
| 130 | C=C1C(=O)c2cc(Cl)ccc2N(S(=O)(=O)c2ccc(C)cc2)C1C(C)C (stereo not shown) [Compound 5n, 6-Chloro-3-methylidene-2-(propan-2-yl)-1-tosyl-2,3-dihydroquinolin-4(1H)-one] | 0.67 ± 0.01 | 1.65 ± 0.05 | 0.68 ± 0.03 |  |  |  |  |  |
| 152 | C=C1C(=O)c2ccccc2N(S(=O)(=O)c2ccccc2)C1c1ccc(OC)cc1 (stereo not shown) [Compound 5d, 2-(4-Methoxyphenyl)-3-methylidene-1-(phenylsulfonyl)-2,3-dihydroquinolin-4(1H)-one] | 1.12 ± 0.37 | 1.21 ± 0.24 |  |  |  |  |  |  |
| 118 | C=C1C(=O)c2ccccc2N(S(=O)(=O)c2ccc(Cl)cc2)C1CC (stereo not shown) [Compound 5e, 1-((4-Chlorophenyl)sulfonyl)-2-ethyl-3-methylidene-2,3-dihydroquinolin-4(1H)-one] | 0.37 ± 0.05 | 1.61 ± 0.07 | 0.75 |  |  |  |  |  |
| 140 | C=C1C(=O)c2ccccc2N(S(=O)(=O)c2ccc(Cl)cc2)C1c1ccc(OC)cc1 (stereo not shown) [Compound 5h, 1-((4-Chlorophenyl)sulfonyl)-2-(4-methoxyphenyl)-3-methylidene-2,3-dihydroquinolin-4(1H)-one] | 0.92 ± 0.01 | 2.1 ± 0.16 |  |  |  |  |  |  |
| 126 | C=C1C(=O)c2ccccc2N(S(=O)(=O)c2ccc(Cl)cc2)C1C(C)C (stereo not shown) [Compound 5f, 1-((4-Chlorophenyl)sulfonyl)-3-methylidene-2-(propan-2-yl)-2,3-dihydroquinolin-4(1H)-one] | < 0.3 | 0.86 ± 0.02 | 0.99 ± 0.07 | 0.23 ± 0.01 |  |  |  |  |
| 178 | C=C1C(=O)c2ccccc2N(S(=O)(=O)c2ccc(Cl)cc2)C1c1ccccc1 (stereo not shown) [Compound 5g] | 0.78 ± 0.07 | 1.89 ± 0.03 |  |  |  |  |  |  |
| 150 | C=C1C(=O)c2ccccc2N(S(=O)(=O)c2ccccc2)C1c1ccccc1 (stereo not shown) [Compound 5c, 3-Methylidene-2-phenyl-1-(phenylsulfonyl)-2,3-dihydroquinolin-4(1H)-one] | 1.36 ± 0.13 | 2.25 ± 0.2 |  |  |  |  |  |  |
